Where a name gives a salt, the structure may show the parent alone.
Target: T1, GAβ-dependent amyloid fibril formation (Human Aβ1-40 + GM1-containing liposome) (Homo sapiens, UniProt P05067)
T1 construct: Human Aβ1-40 (cat. #4307-v, prepared by Peptide Institute); purchased Peptide Institute 4307-v
Experiment: Thioflavin T (ThT) assay of GAβ-dependent amyloid fibril formation (Aβ1-40 with GM1-containing liposome)
Format: biochemical
Settings: @5 μM; read-out: ThT Inhibitory activity (% inhibition)
Experimental: <3. Evaluation of the Compounds Based on the Inhibitory Activity Against Amyloid Fibril Formation in Thioflabin T (ThT) Assay>
Inhibitory activity against GAβ-dependent amyloid fibril formation of the above compounds 1 to 133 and 142 to 267 were evaluated in ThT assay.
(1) Preparation of Aβ Solution
Human Aβ1-40 (cat. #4307-v, prepared by Peptide Institute) was dissolved in a 0.02% ammonia solution (400 μM), and the mixture was treated in an ultracentrifuge (S110AT rotor, Hitachi) at 100,000 rpm for 3 hours. Approximately two-thirds of the upper layer of the supernatant was recovered and protein concentration was measured. The Aβ solution was aliquoted and stored at −80° C. until use, was melted immediately before use, and was diluted to 75 μM using phosphate buffer (PBS: cat. #10010, manufactured by Life Technologies).
(2) Preparation of GM1-Containing Liposome
Using a mixed solution of chloroform/methanol (1:1) as a solvent, a mixed solution of 100 mM each of cholesterol and sphingomyelin (both manufactured by Sigma-Aldrich) was prepared. To this mixed solution, GM 1 (cat. #1061, manufactured by Matreya Co.) was dissolved to make a solution of 50 mM concentration. This lipid mixed solution was aliquoted into glass test tubes and stored at −20° C. until use, was melted before use, was mixed with chloroform/methanol mixture (1:1) and mixed, and then the solvent was removed by applying nitrogen gas to the suspension. The dried lipid mixture was resuspended in PBS to be a GM1 concentration of 2.5 mM, and frozen and thawed 5 times with liquid nitrogen. The lipid suspension was centrifuged at 15,000 rpm for 10 minutes and the precipitate was resuspended in PBS to be a GM1 concentration of 2.5 mM. Using an ultrasonic crusher (XL-2000, MISONIX Co., Ltd.) equipped with a microchip, ultrasonic treatment was repeated on ice for 10 seconds until the suspension became transparent, and GM1-containing liposome was prepared. Immediately prior to use, PBS was added and diluted to a GM 1 concentration of 75 μM.
(3) Preparation of Compound Solution
Compounds 1 to 133 and 142 to 267 were prepared as 10 mM and 2 mM solution in DMSO, respectively. And each solution was diluted to 75 μM or 15 μM with PBS immediately prior to use.
(4) GAβ-Dependent Amyloid Fibril Formation
To a 96-well microplate, 5 μl each of the 75 μM Aβ solution prepared above (1), the compound solution prepared in (3) or 0.75% DMSO was mixed and incubated at room temperature for 10 minutes. Then, 5 μl each of 750 μM GM1-containing liposome prepared in (2) was added to each well and incubated at 37° C. for 18 hours.
ThT (manufactured by Sigma-Aldrich) was adjusted to 5 μM using 50 mM glycine-NaOH buffer (pH 8.5). Immediately before measurement, 10 μl from each well of (4) was transferred to a 96-well black plate. 50 μl of 5 μM ThT solution was added from each injector to each well using a multi-plate reader (ARVO-HTS, manufactured by Perkin Elmer), and then the optimal fluorescence of ThT bound to amyloid fiber (excitation wavelength 430 nm, fluorescence wavelength 490 nm) was measured.
The fluorescence intensity of ThT indicates the degree of amyloid fibrils formation. By calculating the ratio of the ThT fluorescence intensity between addition of the compound and without addition of the compound, the inhibition rate against amyloid fibril formation by the compound was calculated.

T1 sequence (P05067 672-711 limits assumed): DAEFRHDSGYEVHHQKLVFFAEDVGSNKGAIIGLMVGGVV

Row | inhibition at 5 µM | SMILES
1 | 52% | O=C(NC(CO)c1nc(-c2ccc(O)cc2)no1)c1ccc(Cl)cc1 (centres unmarked) [Compound 78, 4-chloro-N-{2-hydroxy-1-[3-(4-hydroxyphenyl)-1,2,4-oxadiazol-5-yl]ethyl}benzamide]
2 | 47% | O=C1CC(CO)(c2nc(-c3ccc(O)cc3)no2)CN1c1ccc(Cl)cc1 (centres unmarked) [Compound 72, 1-(4-chloro-phenyl)-4-(hydroxy-methyl)-4-{3-(4-hydroxyphenyl)-1,2,4-oxadiazol-5-yl} pyrrolidin-2-one]

Same assay, conditions: @25 μM; read-out: ThT Inhibitory activity (% inhibition)

Row | inhibition at 25 µM | SMILES
3 | 89% | O=C(NC(CO)c1nc(-c2ccc(O)cc2)no1)c1ccc(Cl)cc1 (centres unmarked) [Compound 78, 4-chloro-N-{2-hydroxy-1-[3-(4-hydroxyphenyl)-1,2,4-oxadiazol-5-yl]ethyl}benzamide]
4 | 87% | OC(Cc1c[nH]c2ccccc12)c1nc(-c2ccc(OC(F)(F)F)cc2)no1 (centres unmarked) [Compound 101, 2-(1H-indol-3-yl)-1-{3-[4-(trifluoromethoxy)phenyl]-1,2,4-oxadiazol-5-yl}ethan-1-ol]
5 | 81% | O=C1CC(CO)(c2nc(-c3ccc(O)cc3)no2)CN1c1ccc(Cl)cc1 (centres unmarked) [Compound 72, 1-(4-chloro-phenyl)-4-(hydroxy-methyl)-4-{3-(4-hydroxyphenyl)-1,2,4-oxadiazol-5-yl} pyrrolidin-2-one]

Same assay, conditions: inhibition rate against amyloid fibril formation, final concentration of the compound 25 μM; read-out: Inhibitory activity ABC evaluation

Row | inhibition at 25 µM | SMILES
6 | < 40% | O=C(NC1(c2nc(-c3ccc(OC(F)(F)F)cc3)no2)CCCC1)c1ccc(Cl)cc1 [Compound 29, 4-chloro-N-(1-[3-{4-(trifluoromethoxy)phenyl}-1,2,4-oxadiazol-5-yl]cyclopentyl) benzamide]
7 | > 80% | O=C(N[C@@H](CO)c1nc(-c2ccc(C(F)F)cc2)no1)c1ccccc1 [Compound 168, N-[(1S)-1-{3-[4-(difluoromethyl)phenyl]-1,2,4-oxadiazol-5-yl}-2-hydroxyethyl] benzamide]
8 | < 40% | NC[C@H](NC(=O)c1ccccc1)c1nc(-c2ccc(OC(F)(F)F)cc2)no1 [Compound 149, N-[(1S)-2-amino-1-{3-[4-(trifluoromethoxy)phenyl]-1,2,4-oxa-diazol-5-yl}ethyl] benzamide]
9 | < 40% | O=C(NC1(c2nc(-c3ccc(OC(F)(F)F)cc3)no2)CCCC1)c1cccc(Cl)c1 [Compound 35, 3-chloro-N-(1-[3-{4-(trifluoromethoxy)phenyl}-1,2,4-oxadiazol-5-yl]cyclopentyl) benzamide]
10 | 40 to 80% | O=C(N[C@@H](CO)c1nc(-c2ccc(C(F)(F)F)cc2)no1)C1CC(=O)N(c2ccc(Cl)cc2)C1 (stereo partly drawn) [Compound 193, 1-(4-chlorophenyl)-N-[(1S)-2-hydroxy-1-{3-[4-(trifluoromethyl)phenyl]-1,2,4-oxadiazol-5-yl}ethyl]-5-oxopyrrolidine-3-carboxamide]
11 | 40 to 80% | O=C(N[C@@H](CO)c1nc(-c2ccc(O)c(F)c2)no1)c1ccc(Cl)cc1 [Compound 99, (S)-4-chloro-N-(1-(3-(3-fluoro-4-hydroxyphenyl)-1,2,4-oxadiazol-5-yl)-2-hydroxy-ethyl)benzamide]
12 | < 40% | O=C(c1ccc(Cl)cc1)N1C[C@@H](O)C[C@H]1c1nc(-c2ccc(OC(F)(F)F)cc2)no1 [Compound 56, (4-chlorophenyl) ((2S,4S)-4-hydroxy-2-[3-{4-(trifluoro-methoxy)phenyl}-1,2,4-oxadiazol-5-yl]pyrrolidin-1-yl)methanone]
13 | > 80% | O=C(N[C@@H](CO)c1nc(-c2ccc(OC(F)(F)F)cc2)no1)c1cccc(F)c1 [Compound 94, (S)-3-fluoro-N-(2-hydroxy-1-[3-{4-(trifluoromethoxy)phenyl}-1,2,4-oxadiazol-5-yl]ethyl)benzamide]
14 | 40 to 80% | O=C(N[C@@H](CO)c1nnc(-c2ccc(OC(F)(F)F)cc2)o1)c1ccc(F)cc1 [Compound 112, (S)-4-fluoro-N-(2-hydroxy-1-(5-(4-(tri-fluoromethoxy)phenyl)-1,3,4-oxadiazol-2-yl)ethyl)benzamide]
15 | 40 to 80% | O=C(N[C@@H](CO)c1noc(-c2ccc(OC(F)(F)F)cc2)n1)c1ccccc1 [Compound 128, (R)-N-(2-hydroxy-1-(5-(4-(trifluoro-methoxy)phenyl)-1,2,4-oxadiazol-3-yl)ethyl)benzamide]
16 | 40 to 80% | O=C(c1ccc(Cl)cc1)N1CCC[C@H]1c1nc(-c2ccc(OC(F)(F)F)cc2)no1 [Compound 55, (S)-(4-chlorophenyl) (2-[3-{4-(trifluoro-methoxy)phenyl)-1,2,4-oxadiazol-5-yl}pyrrolidin-1-yl)methanone]
17 | 40 to 80% | COc1ccc(-c2noc(C3CC(=O)N(c4ccc(Cl)cc4)C3)n2)cc1F (centres unmarked) [Compound 42]
18 | < 40% | O=C1CC(c2nnc(-c3ccc(OC(F)(F)F)cc3)[nH]2)CN1c1ccc(Cl)cc1 (centres unmarked) [Compound 123, 1-(4-chlorophenyl)-4-{5-[4-(trifluoromethoxy)phenyl]-4H-1,2,4-triazol-3-yl}pyrrolidin-2-one]
19 | > 80% | O=C(NC(CO)c1nc(-c2ccc(O)cc2)no1)c1ccc(Cl)cc1 (centres unmarked) [Compound 78, 4-chloro-N-{2-hydroxy-1-[3-(4-hydroxyphenyl)-1,2,4-oxadiazol-5-yl]ethyl}benzamide]
20 | > 80% | OC(Cc1c[nH]c2ccccc12)c1nc(-c2ccc(OC(F)(F)F)cc2)no1 (centres unmarked) [Compound 101, 2-(1H-indol-3-yl)-1-{3-[4-(trifluoromethoxy)phenyl]-1,2,4-oxadiazol-5-yl}ethan-1-ol]
21 | > 80% | O=C(N[C@@H](CO)c1nc(-c2ccc(C(F)(F)F)cc2)no1)c1cc(F)cc(F)c1 [Compound 196, 3,5-difluoro-N-[(1S)-2-hydroxy-1-{3-[4-(trifluoromethyl)phenyl]-1,2,4-oxadiazol-5-yl}ethyl]benzamide]
22 | > 80% | O=C1CC(CO)(c2nc(-c3ccc(O)cc3)no2)CN1c1ccc(Cl)cc1 (centres unmarked) [Compound 72, 1-(4-chloro-phenyl)-4-(hydroxy-methyl)-4-{3-(4-hydroxyphenyl)-1,2,4-oxadiazol-5-yl} pyrrolidin-2-one]
23 | < 40% | COc1ccc(-c2nnc([C@H](CO)NC(=O)c3ccc(Cl)cc3)o2)cc1F [Compound 113, (S)-4-chloro-N-(1-(5-(3-fluoro-4-methoxy-phenyl)-1,3,4-oxadiazol-2-yl)-2-hydroxy-ethyl)benzamide]
24 | < 40% | N#Cc1cccc(-c2nnc([C@@H](CO)NC(=O)c3ccc(Cl)cc3)o2)c1 [Compound 109, (R)-4-chloro-N-(1-(5-(3-cyanophenyl)-1,3,4-oxadiazol-2-yl)-2-hydroxyethyl) benzamide]
25 | 40 to 80% | O=C(/C=C/c1ccc(F)cc1)N[C@@H](CO)c1nc(-c2ccc(C(F)(F)F)cc2)no1 [Compound 208, (2E)-3-(4-fluorophenyl)-N-[(1S)-2-hydroxy-1-{3-[4-(trifluoromethyl)phenyl]-1,2,4-oxadiazol-5-yl}ethyl]prop-2-enamide]
26 | 40 to 80% | O=C(N[C@@H](CO)c1nc(-c2c[nH]c3ccc(F)cc23)no1)c1ccc(F)cc1 [Compound 234]
27 | 40 to 80% | O=C(N[C@@H](CO)c1nc(-c2ccc(OC(F)(F)F)cc2)no1)c1c[nH]c2cc(Cl)ccc12 [Compound 76, (S)-6-chloro-N-(2-hydroxy-1-[3-{4-(trifluoro-methoxy)phenyl}-1,2,4-oxadiazol-5-yl}ethyl)-1H-indole-3-carboxamide]
28 | < 40% | COc1ccc(-c2noc(CCC(=O)Nc3cccc(Cl)c3)n2)cc1 [Compound 8, N-(3-chlorophenyl)-3-{3-(4-methoxyphenyl)-1,2,4-oxadiazol-5-yl}propanamide]
29 | 40 to 80% | O=C(c1cccc(Cl)c1)N1C[C@H](O)C[C@H]1c1nc(-c2ccc(OC(F)(F)F)cc2)no1 [Compound 58, (3-chlorophenyl) ((2S,4R)-4-hydroxy-2-[3-{4-(trifluoro-methoxy)phenyl}-1,2,4-oxadiazol-5-yl]pyrrolidin-1-yl)methanone]
30 | 40 to 80% | O=C(N[C@@H](CO)c1noc(-c2ccc(OC(F)(F)F)cc2)n1)c1ccc(Cl)cc1 [Compound 126, (R)-4-chloro-N-(2-hydroxy-1-(5-(4-(trifluoromethoxy)phenyl)-1,2,4-oxadiazol-3-yl)ethyl)benzamide]
31 | > 80% | O=C(N[C@@H](CO)c1nc(-c2ccc(C(F)(F)F)cc2)no1)c1ccc(Cl)s1 [Compound 198, 5-chloro-N-[(1S)-2-hydroxy-1-{3-[4-(trifluoromethyl)phenyl]-1,2,4-oxadiazol-5-yl}ethyl]thiophene-2-carboxamide]

Row | SMILES | inhibition at 25 µM
32 | CS(=O)(=O)Nc1ccc(-c2nnc([C@@H](N)Cc3c[nH]c4ccccc34)o2)cc1 [Compound 111, (S)-N-(4-(5-(1-amino-2-(1H-indol-3-yl)ethyl)-1,3,4-oxadiazol-2-yl)phenyl) methane-sulfonamide hydrochloride] | < 40%

— US10538516B2, “Oxadiazole derivative and pharmaceutical containing same” (National Center for Geriatrics and Gerontology, priority 2015, dated 2020)
